Converted amounts (≈) assume the structure as drawn. The source made the active and inactive calls. The rule behind the calls is not given here.
Experiments:
[1] = species on record: Rattus norvegicus; assay: Inhibition of NADH dehydrogenase and oxidase activity of electron transport protein complex 1 in rat […] assessed as blockade of reduction-oxidation process; type: cell membranes
[2] = test system: Nucleic Acid; assay: Induction of strand scission activity in bacteriophage X174RF1 DNA infected in Escherichia coli; type: nucleic-acid assay; conditions: unidentified phage
[3] = test system: Mus musculus; assay: (§1) Toxicity in ip dosed mouse; type: organism-based; conditions: in vivo
[4] = test system: P388; assay: Cytotoxicity against mouse P388 cells; type: functional; conditions: read-out: LC50 (the source's name)
[5] = test system: SK-MEL-2; assay: Cytotoxicity against human SK-MEL-2 cells; type: functional; conditions: read-out: LC50 (the source's name)
[6] = test system: MDA-N; assay: Cytotoxicity against human MDA-N cells; type: functional; conditions: read-out: LC50 (the source's name)
[7] = test system: HCC 2998; assay: Cytotoxicity against human HCC2998 cells; type: functional; conditions: read-out: LC50 (the source's name)
[8] = test system: 786-0; assay: Cytotoxicity against human 786-0 cells; type: functional; conditions: read-out: LC50 (the source's name)
[9] = test system: HCT-116; assay: Cytotoxicity against human HCT116 cells; type: functional; conditions: read-out: LC50 (the source's name)
[10] = test system: NCI-H522; assay: Cytotoxicity against human NCI-H522 cells; type: functional; conditions: read-out: LC50 (the source's name)
[11] = test system: SNB-19; assay: Cytotoxicity against human SNB19 cells; type: functional; conditions: read-out: LC50 (the source's name)
[12] = test system: MDA-MB-231; assay: Cytotoxicity against human MDA-MB-231 cells; type: functional; conditions: read-out: LC50 (the source's name)
[13] = Toxicity in Artemia salina; type: organism-based; conditions: in vivo
[14] = test system: SR; assay: Cytotoxicity against human SR cells; type: functional; conditions: read-out: LC50 (the source's name)
[15] = test system: SF-268; assay: Cytotoxicity against human SF268 cells; type: functional; conditions: read-out: LC50 (the source's name)
[16] = test system: A498; assay: Cytotoxicity against human A498 cells; type: functional; conditions: read-out: LC50 (the source's name)
[17] = test system: DU-145; assay: Cytotoxicity against human DU145 cells; type: functional; conditions: read-out: LC50 (the source's name)
[18] = test system: OVCAR-4; assay: Cytotoxicity against human OVCAR4 cells; type: functional; conditions: read-out: LC50 (the source's name)
[19] = Cytotoxicity against human […] cells; type: functional; conditions: read-out: LC50 (the source's name)
[20] = test system: ACHN; assay: Cytotoxicity against human ACHN cells; type: functional; conditions: read-out: LC50 (the source's name)
[21] = test system: SK-MEL-28; assay: Cytotoxicity against human SK-MEL-28 cells; type: functional; conditions: read-out: LC50 (the source's name)
[22] = test system: Malme-3M; assay: Cytotoxicity against human MALME-3M cells; type: functional; conditions: read-out: LC50 (the source's name)
[23] = test system: K562; assay: Cytotoxicity against human K562 cells; type: functional; conditions: read-out: LC50 (the source's name)
[24] = Cytotoxicity against human MCF7/ADR cells; type: functional; conditions: NCI/ADR-RES, read-out: LC50 (the source's name)
[25] = test system: T47D; assay: Cytotoxicity against human T47D cells; type: functional; conditions: read-out: LC50 (the source's name)
[26] = test system: U-251; assay: Cytotoxicity against human U251 cells; type: functional; conditions: read-out: LC50 (the source's name)
[27] = test system: NCI-H23; assay: Cytotoxicity against human NCI-H23 cells; type: functional; conditions: read-out: LC50 (the source's name)
[28] = test system: M14; assay: Cytotoxicity against human M14 cells; type: functional; conditions: read-out: LC50 (the source's name)
[29] = test system: SK-OV-3; assay: Cytotoxicity against human SKOV3 cells; type: functional; conditions: read-out: LC50 (the source's name)
[30] = test system: HCT-15; assay: Cytotoxicity against human HCT15 cells; type: functional; conditions: read-out: LC50 (the source's name)
[31] = test system: LOX IMVI; assay: Cytotoxicity against human LOXIMVI cells; type: functional; conditions: read-out: LC50 (the source's name)
[32] = test system: EKVX; assay: Cytotoxicity against human EKVX cells; type: functional; conditions: read-out: LC50 (the source's name)
[33] = test system: IGROV-1; assay: Cytotoxicity against human IGROV1 cells; type: functional; conditions: read-out: LC50 (the source's name)
[34] = test system: HOP-92; assay: Cytotoxicity against human HOP92 cells; type: functional; conditions: read-out: LC50 (the source's name)
[35] = test system: UO-31; assay: Cytotoxicity against human UO31 cells; type: functional; conditions: read-out: LC50 (the source's name)
[36] = test system: SF-539; assay: Cytotoxicity against human SF539 cells; type: functional; conditions: read-out: LC50 (the source's name)
[37] = test system: NCI-H226; assay: Cytotoxicity against human NCI-H226 cells; type: functional; conditions: read-out: LC50 (the source's name)
[38] = test system: OVCAR-3; assay: Cytotoxicity against human OVCAR-3 cells; type: functional; conditions: read-out: LC50 (the source's name)
[39] = test system: COLO 205; assay: Cytotoxicity against human COLO205 cells; type: functional; conditions: read-out: LC50 (the source's name)
[40] = test system: HOP-62; assay: Cytotoxicity against human HOP62 cells; type: functional; conditions: read-out: LC50 (the source's name)
[41] = test system: CAKI-1; assay: Cytotoxicity against human Caki1 cells; type: functional; conditions: read-out: LC50 (the source's name)
[42] = test system: MDA-MB-435; assay: Cytotoxicity against human MDA-MB-435 cells; type: functional; conditions: read-out: LC50 (the source's name)
[43] = Cytotoxicity against human Hs 578T cells; type: functional; conditions: read-out: LC50 (the source's name)
[44] = test system: HL-60(TB); assay: Cytotoxicity against human HL-60(TB) cells; type: functional; conditions: read-out: LC50 (the source's name)
[45] = test system: SF-295; assay: Cytotoxicity against human SF295 cells; type: functional; conditions: read-out: LC50 (the source's name)
[46] = test system: OVCAR-8; assay: Cytotoxicity against human OVCAR8 cells; type: functional; conditions: read-out: LC50 (the source's name)
[47] = test system: SK-MEL-5; assay: Cytotoxicity against human SK-MEL-5 cells; type: functional; conditions: read-out: LC50 (the source's name)
[48] = test system: OVCAR-5; assay: Cytotoxicity against human OVCAR5 cells; type: functional; conditions: read-out: LC50 (the source's name)
[49] = test system: CCRF-CEM; assay: Cytotoxicity against human CCRF-CEM cells; type: functional; conditions: read-out: LC50 (the source's name)
[50] = test system: KM12; assay: Cytotoxicity against human KM12 cells; type: functional; conditions: read-out: LC50 (the source's name)
[51] = test system: UACC-62; assay: Cytotoxicity against human UACC62 cells; type: functional; conditions: read-out: LC50 (the source's name)
[52] = test system: TK-10; assay: Cytotoxicity against human TK10 cells; type: functional; conditions: read-out: LC50 (the source's name)
[53] = test system: A549; assay: Cytotoxicity against human A549 cells; type: functional; conditions: read-out: LC50 (the source's name)
[54] = test system: MCF7; assay: Cytotoxicity against human MCF7 cells; type: functional; conditions: read-out: LC50 (the source's name)
[55] = test system: NCI-H460; assay: Cytotoxicity against human NCI-H460 cells; type: functional; conditions: read-out: LC50 (the source's name)
[56] = test system: BT-549; assay: Cytotoxicity against human BT549 cells; type: functional; conditions: read-out: LC50 (the source's name)
[57] = test system: NCI-H322M; assay: Cytotoxicity against human NCI-H322M cells; type: functional; conditions: read-out: LC50 (the source's name)
[58] = test system: RXF 393; assay: Cytotoxicity against human […] cells; type: functional; conditions: read-out: LC50 (the source's name)
[59] = test system: MOLT-4; assay: Cytotoxicity against human MOLT4 cells; type: functional; conditions: read-out: LC50 (the source's name)
[60] = test system: HT-29; assay: Cytotoxicity against human HT-29 cells; type: functional; conditions: read-out: LC50 (the source's name)
[61] = test system: UACC-257; assay: Cytotoxicity against human UACC257 cells; type: functional; conditions: read-out: LC50 (the source's name)
[62] = test system: SW-620; assay: Cytotoxicity against human SW620 cells; type: functional; conditions: read-out: LC50 (the source's name)
[63] = test system: PC-3; assay: Cytotoxicity against human PC3 cells; type: functional; conditions: read-out: LC50 (the source's name)
[64] = as §1; type: organism-based; conditions: in vivo

## CC1=C/[C@H](C)C[C@@]2(C)CC[C@@H](O2)[C@@]23CC[C@@](C)(C[C@@H](O2)[C@H]2O[C@](C)(CC2=O)[C@@H](O)[C@@H]2CC[C@@]4(CCC[C@H](O4)[C@@H](C)C(=O)O[C@@H]4C[C@@H]([C@@]5(O)OCC[C@@H](C)[C@H]5O)O[C@@H]4\C=C\1)O2)O3
[1]
  Activity: inactive
[2]
  Activity: inactive

## COc1cccc2c1C(=O)c1c(O)c3c(c(O)c1C2=O)C[C@@](O)(C(=O)CO)C[C@@H]3O[C@H]1C[C@H](N)[C@H](O)[C@H](C)O1 [DOXORUBICIN]
[3]
  LD50: 13 µg/mL

## O=c1[nH]cc(F)c(=O)[nH]1 [FLUOROURACIL]
[4]
  CC50: 0.2 µg/mL (≈ 1.54 µM)

## CC1=C\[C@H](C)C[C@@]2(C)CC[C@@H](O2)[C@@]23CC[C@@](C)(C[C@@H](O2)[C@H]2O[C@](C)(CC2=O)[C@@H](O)[C@@H]2CC[C@@]4(CCC[C@H](O4)[C@@H](C)C(=O)O[C@@H]4C[C@@H]([C@@]5(O)OCC[C@@H](C)[C@H]5O)O[C@@H]4\C=C\1)O2)O3 [PECTENOTOXIN II]
[5]
  CC50: > 10 µM
[6]
  CC50: > 10 µM
[7]
  CC50: > 10 µM
[8]
  CC50: > 10 µM
[9]
  CC50: 0.0733 µM
[10]
  CC50: > 10 µM
[11]
  CC50: > 10 µM
[12]
  CC50: > 10 µM
[13]
  LC50: < 0.1 µg/mL
[14]
  CC50: > 10 µM
[15]
  CC50: 0.154 µM
[16]
  CC50: 0.0341 µM
[17]
  CC50: > 10 µM
[18]
  CC50: > 10 µM
[19]
  CC50: > 10 µM
[20]
  CC50: > 10 µM
[21]
  CC50: 0.0423 µM
[22]
  CC50: 0.123 µM
[23]
  CC50: > 10 µM
[24]
  CC50: > 10 µM
[25]
  CC50: > 10 µM
[26]
  CC50: > 10 µM
[27]
  CC50: > 10 µM
[28]
  CC50: 4.73 µM
[29]
  CC50: > 10 µM
[30]
  CC50: > 10 µM
[31]
  CC50: > 10 µM
[32]
  CC50: 0.062 µM
[33]
  CC50: 0.0673 µM
[34]
  CC50: 0.807 µM
[35]
  CC50: 0.0563 µM
[36]
  CC50: > 10 µM
[37]
  CC50: > 10 µM
[38]
  CC50: 0.0616 µM
[39]
  CC50: 0.00782 µM
[40]
  CC50: 0.0251 µM
[41]
  CC50: 0.0191 µM
[42]
  CC50: > 10 µM
[43]
  CC50: 0.0779 µM
[44]
  CC50: > 10 µM
[45]
  CC50: 0.0777 µM
[46]
  CC50: > 10 µM
[47]
  CC50: 0.0552 µM
[48]
  CC50: > 10 µM
[49]
  CC50: > 10 µM
[50]
  CC50: > 10 µM
[51]
  CC50: > 10 µM
[52]
  CC50: 0.0725 µM
[53]
  CC50: > 10 µM
[54]
  CC50: > 10 µM
[55]
  CC50: > 10 µM
[56]
  CC50: 0.0627 µM
[57]
  CC50: > 10 µM
[58]
  CC50: 0.03 µM
[59]
  CC50: > 10 µM
[60]
  CC50: > 10 µM
[61]
  CC50: > 10 µM
[62]
  CC50: > 10 µM
[63]
  CC50: > 10 µM
[64]
  LD50: 0.26 mg/kg

## O=C(NCCSSCCNC(=O)/C(Cc1ccc(O)c(Br)c1)=N/O)/C(Cc1ccc(O)c(Br)c1)=N/O [PSAMMAPLIN A]
[4]
  CC50: 0.64 µg/mL (≈ 0.963 µM)
[13]
  LC50: 4 µg/mL (≈ 6.02 µM)
[53]
  CC50: 6.43 µg/mL
